Patent US20210130826A1, “METHODS OF MODULATING ANTISENSE ACTIVITY” (IONIS PHARMACEUTICALS, INC., priority 2018, published 2021)

Tested on: Atg7
Experiment: Atg7 mRNA in mouse liver by RT-qPCR
Format: in vivo
Settings: Table 31; mouse liver 24 h; oligonucleotide 5 mg/kg; AZD8055 5 mg/kg at 0, 12, 22 h
Experimental: The following experiments were performed to determine if the effects of autophagy modulators on antisense activity in vitro can be observed in vivo. […] Mice were sacrificed at 24 hours after administration of the modified oligonucleotide and tissues were collected for analysis. […] Atg7 mRNA levels are a marker of the induction of autophagy in treated mouse livers. Results are presented as percent change of RNA, relative to PBS control treated with DMSO, normalized to mouse cyclophilin A measured using mouse primer probe set Cyclophilin-A (forward sequence [NT], designated herein as SEQ ID NO: 38; reverse sequence [NT], designated herein as SEQ ID NO: 39; probe sequence [NT], designated herein as SEQ ID NO: 40). […] Following administration of modified oligonucleotide, groups of mice were either allowed free access to chow (control) or fasted overnight (16 hr fast). Mice were sacrificed at 16 hours after administration of the modified oligonucleotide and tissues were collected for analysis. […] Atg7 mRNA levels are a marker of the induction of autophagy in treated mouse livers. Results are presented in Table 33 relative to mice treated with PBS and allowed normal access to chow. […] Mice were sacrificed at 24 hours after administration of the modified oligonucleotide and tissues were collected for analysis. […]

For `COc1ccc(-c2ccc3c(N4CCOC[C@@H]4C)nc(N4CCOC[C@@H]4C)nc3n2)cc1CO` [AZD8055], the “Atg7 level (% relative to PBS/DMSO-treated mice)” value was 112%.
